Measurements published in patent publication US10934309B2, “Tricyclic quinone derivative” (Boston Biomedical, Inc., priority 2014, dated 2021).

How the values were obtained:
Assay type in all cases: cell-based, human
HT-29 cells [1] = assay: Inhibition assay of cancer cell sphere-forming ability (Test Example 2), HT-29; details: Homo sapiens, HT-29, 96 h, read-out: IC50 (μM) HT, concentration for 50% inhibition of cell proliferation (Sphere IC50 value)
Experimental: (§1) HCT-116 cells (derived from human colon adenocarcinoma), HT-29 cells (derived from human colon cancer), FaDu cells (derived from human hypopharynx cancer) were obtained from American Type Culture Collection (ATCC). […] HCT-116 cells, HT-29 cells, and FaDu cells were seeded onto 384 Well Black Clear Bottom Ultra-Low Attachment Microplate (Corning Cat. […] A test substance was added so that the final concentration of DMSO is 0.1%, and then cultured for 4 days. […] A test shown in Test example 2 was carried out for compounds obtained in the Examples.

FaDu cells [2] = assay: Proliferation inhibition assay of cancer cells (Test Example 1), FaDu; details: Homo sapiens, FaDu, 96 h, read-out: IC50 (μM) FaDu, concentration for 50% inhibition of cell proliferation (Bulk IC50 value)
Experimental: (§2) HCT-116 cells (derived from human colon adenocarcinoma), HT-29 cells (derived from human colon cancer), and FaDu cells (derived from human hypopharynx cancer) were obtained from American Type Culture Collection (ATCC). […] After cells were seeded at 300-600 cells/well onto black μClear-plate 384 well (Greiner bio-one Cat. No. 781091), a test substance was added such that the final concentration of DMSO is 0.1%, and cultured for 4 days. […] A test shown in Test example 1 was carried out for compounds obtained in the Examples.

HCT-116 cells [3] = assay: Inhibition assay of cancer cell sphere-forming ability (Test Example 2), HCT-116; details: Homo sapiens, HCT-116, 96 h, read-out: IC50 (μM) HCT, concentration for 50% inhibition of cell proliferation (Sphere IC50 value)
Experimental: as §1

FaDu cells [4] = assay: Inhibition assay of cancer cell sphere-forming ability (Test Example 2), FaDu; details: Homo sapiens, FaDu, 96 h, read-out: IC50 (μM) FaDu, concentration for 50% inhibition of cell proliferation (Sphere IC50 value)
Experimental: as §1

HCT-116 cells [5] = assay: Proliferation inhibition assay of cancer cells (Test Example 1), HCT-116; details: Homo sapiens, HCT-116, 96 h, read-out: IC50 (μM) HCT, concentration for 50% inhibition of cell proliferation (Bulk IC50 value)
Experimental: as §2

HT-29 cells [6] = assay: Proliferation inhibition assay of cancer cells (Test Example 1), HT-29; details: Homo sapiens, HT-29, 96 h, read-out: IC50 (μM) HT, concentration for 50% inhibition of cell proliferation (Bulk IC50 value)
Experimental: as §2

[7] = HT-29 cells, Ultra-Low Attachment plate, serum-free DMEM/F12 with B27, EGF, bFGF, insulin, 4 days, Cell Titer-Glo
[8] = FaDu cells, cultured for 4 days, Cell Titer-Glo
[9] = HCT-116 cells, Ultra-Low Attachment plate, serum-free DMEM/F12 with B27, EGF, bFGF, insulin, 4 days, Cell Titer-Glo
[10] = FaDu cells, Ultra-Low Attachment plate, serum-free DMEM/F12 with B27, EGF, bFGF, insulin, 4 days, Cell Titer-Glo
[11] = HCT-116 cells, cultured for 4 days, Cell Titer-Glo
[12] = HT-29 cells, cultured for 4 days, Cell Titer-Glo

| SMILES | IC50 (HT-29 cells [1]; [7]) | IC50 (FaDu cells [2]; [8]) | IC50 (HCT-116 cells [3]; [9]) | IC50 (FaDu cells [4]; [10]) | IC50 (HCT-116 cells [5]; [11]) | IC50 (HT-29 cells [6]; [12]) | IC50 (HT-29 cells [1]) | IC50 (FaDu cells [2]) | IC50 (HCT-116 cells [3]) | IC50 (FaDu cells [4]) | IC50 (HCT-116 cells [5]) | IC50 (HT-29 cells [6]) |
| --- | --- | --- | --- | --- | --- | --- | --- | --- | --- | --- | --- | --- |
| CC1CNCC(C)(C(=O)c2cc3c(s2)C(=O)c2ncccc2C3=O)C1 (stereo not drawn) [Example 39, 2-[(3,5-dimethylpiperidin-5-yl)carbonyl]thieno[3,2-g]quinoline-4,9-dione] | 0.55 µM | 0.09 µM | 0.35 µM | 0.45 µM | 0.38 µM | 3.71 µM | – | – | – | – | – | – |
| C[C@@H]1CN(C(=O)c2cc3c(s2)C(=O)c2nccnc2C3=O)C[C@H](C)O1 [Example 58, 7-{[(2R,6S)-2,6-dimethylmorpholin-4-yl]carbonyl}thieno[2,3-g]quinoxaline-5,9-dione] | 5.97 µM | 3.71 µM | 0.56 µM | 0.76 µM | 0.64 µM | 7.06 µM | – | – | – | – | – | – |
| O=C1c2ccncc2C(=O)c2sc(CNCC(F)F)cc21 [Example 35, 2-{[(2,2-Difluoroethyl)amino]methyl}thieno[3,2-g]isoquinoline-4,9-dione] | – | – | – | – | – | – | 0.39 µM | 0.05 µM | 0.27 µM | 0.04 µM | 0.08 µM | 0.6 µM |
| O=C1c2cnccc2C(=O)c2sc(N3CCOCC3)cc21 [Example 32, 2-(morpholin-4-yl)thieno[2,3-g]isoquinoline-4,9-dione] | > 10 µM | 2.15 µM | 7.7 µM | 1.25 µM | 6.56 µM | > 10 µM | – | – | – | – | – | – |
| O=C1c2cnccc2C(=O)c2sc(COCc3ccccc3)cc21 [Example 18, 2-[(benzyloxy)methyl]thieno[2,3-g]isoquinoline-4,9-dione] | > 10 µM | 0.57 µM | 5.71 µM | 0.63 µM | 1 µM | > 10 µM | – | – | – | – | – | – |
| C#Cc1cc2c(s1)C(=O)c1ccncc1C2=O [Example 61, 2-ethynylthieno[2,3-g]isoquinoline-4,9-dione] | 0.24 µM | 0.05 µM | 0.28 µM | 0.05 µM | 0.19 µM | 0.54 µM | – | – | – | – | – | – |
| O=C1c2cnccc2C(=O)c2sc(CO)cc21 [Example 14, 2-(1-hydroxymethyl)thieno[2,3-g]isoquinoline-4,9-dione] | 0.09 µM | 0.03 µM | 0.09 µM | 0.02 µM | 0.06 µM | 0.48 µM | – | – | – | – | – | – |
| CC(O)c1cc2c(o1)C(=O)c1sccc1C2=O (stereo not drawn) [Example 53, 2-(1-hydroxyethyl)thieno[3,2-f][1]benzofuran-4,8-dione] | 0.59 µM | 0.64 µM | 0.56 µM | 0.45 µM | 0.55 µM | 0.68 µM | – | – | – | – | – | – |
| CCN(CCOC)Cc1cc2c(s1)C(=O)c1cccnc1C2=O [Example 6, 2-{[ethyl(2-methoxyethyl)amino]methyl}thieno[2,3-g]quinoline-4,9-dione] | 0.63 µM | 0.41 µM | 0.2 µM | 0.33 µM | 0.39 µM | 0.93 µM | – | – | – | – | – | – |
| COc1c2ccncc2c(OC)c2sc(C(C)O)cc12 (stereo not drawn) [Example 34, 1-(4,9-dimethoxythieno[3,2-g]isoquinolin-2-yl)ethanol] | 0.5 µM | 0.04 µM | 0.24 µM | 0.04 µM | 0.07 µM | 0.64 µM | – | – | – | – | – | – |
| CC(C)(O)c1cc2c(o1)C(=O)c1sccc1C2=O [Example 54, 2-(2-hydroxypropan-2-yl)thieno[3,2-f][1]benzofuran-4,8-dione] | 0.77 µM | 0.67 µM | 0.6 µM | 0.59 µM | 0.61 µM | 2.47 µM | – | – | – | – | – | – |

Continued, in another order:

| IC50 (HT-29 cells [1]; [7]) | IC50 (FaDu cells [2]; [8]) | IC50 (HCT-116 cells [3]; [9]) | IC50 (FaDu cells [4]; [10]) | IC50 (HCT-116 cells [5]; [11]) | IC50 (HT-29 cells [6]; [12]) | SMILES | IC50 (HT-29 cells [1]) | IC50 (FaDu cells [2]) | IC50 (HCT-116 cells [3]) | IC50 (FaDu cells [4]) | IC50 (HCT-116 cells [5]) | IC50 (HT-29 cells [6]) |
| --- | --- | --- | --- | --- | --- | --- | --- | --- | --- | --- | --- | --- |
| 0.58 µM | 0.47 µM | 0.26 µM | 0.17 µM | 0.47 µM | 0.59 µM | CC(=O)c1cc2c(o1)C(=O)c1ncccc1C2=O [Example 50, 2-acetylfuro[3,2-g]quinoline-4,9-dione] | – | – | – | – | – | – |
| 0.59 µM | 0.44 µM | 0.55 µM | 0.28 µM | 0.55 µM | 0.66 µM | COC(C)c1cc2c(s1)C(=O)c1ncccc1C2=O (stereo not drawn) [Example 38, 2-(1-methoxyethyl)thieno[3,2-g]quinoline-4,9-dione] | – | – | – | – | – | – |
| 0.43 µM | 0.07 µM | 0.05 µM | 0.05 µM | 0.06 µM | 0.56 µM | CN(C)C(=O)c1cc2c(s1)C(=O)c1cccnc1C2=O [Example 3, N,N-dimethyl-4,9-dioxo-4,9-dihydrothieno[2,3-g]quinoline-2-carboxamide] | – | – | – | – | – | – |
| 0.58 µM | 0.56 µM | 0.06 µM | 0.08 µM | 0.09 µM | 0.62 µM | CC(=O)c1cc2c(o1)C(=O)c1ccsc1C2=O [Example 56, 2-acetylthieno[2,3-f][1]benzofuran-4,8-dione] | – | – | – | – | – | – |
| 0.53 µM | 0.5 µM | 0.38 µM | 0.09 µM | 0.5 µM | 6.14 µM | CCN(Cc1cc2c(o1)C(=O)c1cccnc1C2=O)S(=O)(=O)CC(C)C [Example 10, N-[(4,9-dioxo-4,9-dihydrofuro[2,3-g]quinolin-2-yl)methyl]-N-ethyl-2-methylpropane-1-sulfonamide] | – | – | – | – | – | – |
| 0.08 µM | 0.43 µM | 0.05 µM | 0.06 µM | 0.07 µM | 0.64 µM | CC(=O)c1cc2c(o1)C(=O)c1sccc1C2=O [Example 52, 2-acetylthieno[3,2-f][1]benzofuran-4,8-dione] | – | – | – | – | – | – |
| 0.55 µM | 0.1 µM | 0.23 µM | 0.12 µM | 0.08 µM | 0.86 µM | CC(O)c1cc2c(s1)C(=O)c1cccnc1C2=O (stereo not drawn) [Example 2, 2-(1-hydroxyethyl)thieno[2,3-g]quinoline-4,9-dione] | – | – | – | – | – | – |
| 0.6 µM | 0.66 µM | 0.51 µM | 0.33 µM | 0.62 µM | 5.62 µM | CC(O)c1cc2c(o1)C(=O)c1cccnc1C2=O (stereo not drawn) [Example 43, 2-(1-hydroxyethyl)furo[2,3-g]quinoline-4,9-dione] | – | – | – | – | – | – |
| 0.49 µM | 0.08 µM | 0.06 µM | 0.06 µM | 0.06 µM | 0.62 µM | CC(O)c1cc2c(s1)C(=O)c1ncccc1C2=O (stereo not drawn) [Example 37, 2-(1-hydroxyethyl)thieno[3,2-g]quinoline-4,9-dione] | – | – | – | – | – | – |
| 0.08 µM | 0.03 µM | 0.06 µM | 0.03 µM | 0.06 µM | 0.52 µM | CC(O)c1cc2c(o1)C(=O)c1ccncc1C2=O (stereo not drawn) [Example 45, 2-(1-hydroxyethyl)furo[2,3-g]isoquinoline-4,9-dione] | – | – | – | – | – | – |
